Our source for the TGI values is PubChem BioAssay (NCI).

Test systems include TK-10 renal; SF-539 CNS; HT29 colon; SF-295 CNS; HS 578T breast; MDA-MB-231 breast; EKVX NSCLC; DU-145 prostate; UACC-62 melanoma; SK-MEL-2 melanoma.
What all share (experiment): inhibition of tumour cell growth, NCI panel, 48 h

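How tested: cells in 96-well plates exposed to compound for 48 hours at five concentrations. TGI is the concentration that stops growth completely.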 Where only a bound is given, the exact number is not on record here.

On to `CN(C)Cc1cc(C(=O)/C=C/c2ccccc2Cl)cc(CN(C)C)c1O`, for which the TGI with TK-10 renal was found to be 34.9 µM; in the test with SF-539 CNS it was 34 µM; in the test with HT29 colon, 9.94 µM; with SF-295 CNS, 28.3 µM; in the test with HS 578T breast, 46.3 µM; with MDA-MB-231 breast, 24.6 µM. In addition, the TGI in the test on EKVX NSCLC came to 30.6 µM; in the test with DU-145 prostate, 24.8 µM.

Turning to `Nc1ccc(N=Nc2ccccc2)cc1`, the TGI in the test on TK-10 renal was more than 100 µM; in the test on SF-539 CNS, more than 100 µM; with HT29 colon, more than 100 µM; in the test with UACC-62 melanoma, more than 100 µM; with SK-MEL-2 melanoma, 68.4 µM; in the test with SF-295 CNS it was 57.1 µM. For the same molecule, the TGI in the test with HS 578T breast was more than 100 µM; in the test with MDA-MB-231 breast, 88 µM; in the test with EKVX NSCLC it was more than 100 µM.

With `CN(NC(=O)c1cccs1)C1=NCCCN1`, the TGI in the test on TK-10 renal, with SF-539 CNS, in the test on HT29 colon, with UACC-62 melanoma, in the test on SK-MEL-2 melanoma and in the test with SF-295 CNS was more than 100 µM throughout. Moreover, the TGI with HS 578T breast, in the test with MDA-MB-231 breast and with EKVX NSCLC was more than 100 µM throughout.

In the case of `c1cc2nnnn2nc1N1CCCC1`, the TGI in the test with TK-10 renal, with SF-539 CNS, with HT29 colon, with UACC-62 melanoma, with SK-MEL-2 melanoma and in the test on SF-295 CNS was more than 100 µM in each case. Further, the TGI in the test with MDA-MB-231 breast and in the test with DU-145 prostate was more than 100 µM each time.

On to `COc1cc(Nc2c3ccccc3nc3ccccc23)ccc1NS(C)(=O)=O`, for which the TGI stood at 15.6 µM in the test on SF-539 CNS; 26.7 µM with UACC-62 melanoma; 23.6 µM with SK-MEL-2 melanoma; 15.2 µM in the test on SF-295 CNS; 23.1 µM in the test on EKVX NSCLC.

Take `Cc1cc(C2(O)C=C(C(C)(C)C)C(=O)C(C(C)(C)C)=C2)c(C)cc1C1(O)C=C(C(C)(C)C)C(=O)C(C(C)(C)C)=C1`: the TGI in the test on TK-10 renal, in the test with SF-539 CNS, in the test with HT29 colon, with UACC-62 melanoma, in the test on SK-MEL-2 melanoma and with SF-295 CNS was more than 100 µM in each case. Moreover, the TGI in the test with MDA-MB-231 breast, with EKVX NSCLC and with DU-145 prostate was more than 100 µM throughout.

For `O=C1CCCCC(=O)OC2(CCCCC2=O)CC1` (centres undefined), the TGI in the test on TK-10 renal, in the test on SF-539 CNS, in the test on HT29 colon, in the test with UACC-62 melanoma, in the test on SK-MEL-2 melanoma and with SF-295 CNS was more than 100 µM throughout. The TGI in the test on MDA-MB-231 breast and in the test on DU-145 prostate was more than 100 µM in each case.

For `O=C1c2ccccc2CCCCCCCCCCC12OCCCO2`, the TGI in the test with TK-10 renal was more than 100 µM; in the test with SF-539 CNS, more than 100 µM; with HT29 colon, 42.9 µM; in the test on UACC-62 melanoma it was more than 100 µM; in the test with SK-MEL-2 melanoma, 68.3 µM; with SF-295 CNS it was more than 100 µM.

As to `Nc1ccc2[nH]c3c(-c4ccccc4)nccc3c2c1`, the TGI was more than 100 µM with SF-539 CNS; more than 100 µM in the test on HT29 colon; more than 80.8 µM in the test on UACC-62 melanoma; more than 100 µM in the test on SK-MEL-2 melanoma; more than 100 µM in the test on SF-295 CNS; more than 100 µM in the test on EKVX NSCLC.

For `CCCSc1ccc2[nH]c(/N=C/c3ccco3)cc2c1`, the TGI with SF-539 CNS is 42.5 µM; in the test on HT29 colon, more than 100 µM; with UACC-62 melanoma, more than 100 µM; with SK-MEL-2 melanoma, 59 µM; with SF-295 CNS, more than 100 µM; in the test on HS 578T breast, more than 100 µM. The TGI in the test on EKVX NSCLC is 68.8 µM; in the test with DU-145 prostate it was more than 100 µM.

Turning to `Cc1ccc2c(c1)[nH]c1cc(C(F)(F)F)ccc1[p+]2=O` (centres undefined), the TGI in the test with TK-10 renal was more than 100 µM; with SF-539 CNS, more than 100 µM; in the test on HT29 colon, more than 100 µM; in the test on UACC-62 melanoma, 54.9 µM; with SK-MEL-2 melanoma it was more than 100 µM; with SF-295 CNS, 81.9 µM. Also, the figures for the TGI with MDA-MB-231 breast, in the test on EKVX NSCLC and in the test on DU-145 prostate were 49.1 µM, 22.2 µM and more than 100 µM, respectively.

On to `O=C1c2ccccc2C(=O)N1Cc1ccccc1-c1c2nc(c(-c3ccccc3CN3C(=O)c4ccccc4C3=O)c3ccc([nH]3)c(-c3ccccc3CN3C(=O)c4ccccc4C3=O)c3nc(c(-c4ccccc4CN4C(=O)c5ccccc5C4=O)c4ccc1[nH]4)C=C3)C=C2`, for which the TGI in the test on TK-10 renal, in the test with SF-539 CNS, with HT29 colon, with UACC-62 melanoma, with SK-MEL-2 melanoma and with SF-295 CNS was more than 100 µM each time.

Consider `C1CCC2C(C1)CCCC2NC1=NCCO1` (centres undefined), for which the TGI in the test on TK-10 renal, in the test on SF-539 CNS, in the test with HT29 colon, in the test on UACC-62 melanoma, in the test with SK-MEL-2 melanoma and with SF-295 CNS was more than 100 µM throughout. Also, the TGI in the test on MDA-MB-231 breast, with EKVX NSCLC and in the test on DU-145 prostate was more than 100 µM in each case.

On to `COc1ccc(O)cc1`, for which the TGI with TK-10 renal was more than 100 µM; in the test with SF-539 CNS it was more than 100 µM; in the test on HT29 colon it was more than 100 µM; in the test with UACC-62 melanoma, 87.1 µM; in the test on SK-MEL-2 melanoma, more than 100 µM; in the test with EKVX NSCLC it was more than 100 µM.

Regarding `NC1=NS(=O)(=O)Nc2nc(-c3ccc([N+](=O)[O-])cc3)[nH]c21`, the TGI in the test with TK-10 renal, in the test with SF-539 CNS, in the test on HT29 colon, in the test with UACC-62 melanoma, in the test with SK-MEL-2 melanoma and in the test with SF-295 CNS was more than 100 µM each time.

For the molecule `CC1Cn2c(nc3ccccc32)NC1=O` (centres undefined), the TGI in the test on TK-10 renal, in the test on SF-539 CNS, in the test with HT29 colon, in the test with UACC-62 melanoma, in the test with SK-MEL-2 melanoma and with SF-295 CNS was more than 100 µM each time. The TGI in the test on HS 578T breast, in the test with MDA-MB-231 breast and in the test with EKVX NSCLC was more than 100 µM each time.

With `Cc1cn(C(Cc2ccccc2)OCCO)c(=O)[nH]c1=O` (centres undefined), the TGI with SF-539 CNS, in the test with HT29 colon, in the test with UACC-62 melanoma, in the test on SK-MEL-2 melanoma, with SF-295 CNS and with MDA-MB-231 breast was more than 100 µM throughout. The TGI in the test with EKVX NSCLC and in the test on DU-145 prostate was more than 100 µM throughout.
